Reference: patent publication US9963463B2, “Urea-substituted indanes as P38 map kinase inhibitors” (TORRENT PHARMACEUTICALS LIMITED, priority 2014, dated 2018)

Target: T1, purified recombinant human p38 alpha MAPK (Homo sapiens, UniProt Q16539)
T1 construct: purchased Millipore, USA
Assay: Inhibition of p38 alpha MAPK activity, TR-FRET kinase assay
Type: biochemical
Details: read-out: P38α Inhibition; for inhibition at 1 µM: Concentration 1 μM
Description: Inhibition of p38 Alpha MAPK Activity: Time-Resolved Fluorescence Resonance Energy Transfer Kinase Standard Assay (TR-FRET Assay)
Compounds of present invention at various concentrations were premixed with DMSO. The experiment was initiated by mixing 0.5%-1.0% DMSO as vehicle/compounds with purified recombinant human p38 alpha MAPK (Millipore, USA) in the wells and 15 min incubation at room temperature. Thereafter, 30 nM of Biotinylated GST-ATF2 (Activation transcription Factor2) and 100 μM of ATP were added in to the wells containing reaction mixture, followed by reincubation for 60 minutes at RT. Reaction was terminated by addition of 10 mM of EDTA and detection reagent containing anti-phosphotheronine ATF2 antibody (PerkinElmer®, USA) labeled with europium chelate and APC (Allophycocyanin) labeled streptavidin, into the reaction mixture which was further incubated for 60 minutes at room temperature. The degree of phosphorylation of the substrate (GST-ATF2) was measured using Envision multimode reader (PerkinElmer®). Percentage inhibition of p38 kinase activity was calculated by determining ratio of specific europium 665 nm energy transfer signal to reference 615 nm signal.

T1 sequence (Q16539 whole entry): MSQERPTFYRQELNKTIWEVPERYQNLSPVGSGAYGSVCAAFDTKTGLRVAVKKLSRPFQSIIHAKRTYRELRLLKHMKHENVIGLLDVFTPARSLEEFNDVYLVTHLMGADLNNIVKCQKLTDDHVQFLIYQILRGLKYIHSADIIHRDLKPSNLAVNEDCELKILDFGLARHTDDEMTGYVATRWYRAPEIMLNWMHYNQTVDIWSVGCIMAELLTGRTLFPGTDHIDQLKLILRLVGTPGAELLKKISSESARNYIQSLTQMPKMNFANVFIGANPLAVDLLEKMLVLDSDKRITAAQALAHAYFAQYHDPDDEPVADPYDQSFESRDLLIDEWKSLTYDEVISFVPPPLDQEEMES

Structure (SMILES) | inhibition at 1 µM [%] | inhibition at 0.1 µM (Concentration 100 nM) [%]
CCCCOc1ccccc1-c1nnc2n1CCN(CCOc1ccc(NC(=O)Nc3cc(C(C)(C)C)nn3-c3ccc(C)cc3)c3c1CCC3)C2 [Compound 32, 1-(7-{2-[3-(2-butoxyphenyl)-5,6-dihydro[1,2,4]triazolo[4,3-a]pyrazin-7(8H)-yl]ethoxy}-2,3-dihydro-1H-inden-4-yl)-3-[3-tert-butyl-1-(4-methylphenyl)-1H-pyrazol-5-yl]urea] | 80 to 100 | 
CCS(=O)(=O)Nc1cc(C(C)(C)C)cc(NC(=O)Nc2ccc(OCCN3CCn4c(nnc4-c4ccccc4SC)C3)c3c2CCC3)c1OC [Compound 45, N-[5-tert-butyl-2-methoxy-3-({[7-(2-{3-[2-(methylsulfanyl)phenyl]-5,6-dihydro[1,2,4]triazolo[4,3-a]pyrazin-7(8H)-yl}ethoxy)-2,3-dihydro-1H-inden-4-yl]carbamoyl}amino)phenyl]ethanesulfonamide] |  | 80 to 100
CSc1ccccc1-c1nnc2n1CCN(CCOc1ccc(NC(=O)Nc3cc(C(C)(C)C)nn3-c3ccc(C)cc3)c3c1CCC3)C2 [Compound 13, 1-[3-tert-butyl-1-(4-methylphenyl)-1H-pyrazol-5-yl]-3-[7-(2-{3-[2-(methylsulfanyl)phenyl]-5,6-dihydro[1,2,4]triazolo[4,3-a]pyrazin-7(8H)-yl}ethoxy)-2,3-dihydro-1H-inden-4-yl]urea] | 80 to 100 | 
CC(C)(C)c1cc(NC(=O)Nc2ccc(OCCN3CCN(CC4CC4)C(=O)C3)c3c2CCC3)n(-c2ccccc2)n1 [Compound 61, 1-(3-tert-butyl-1-phenyl-1H-pyrazol-5-yl)-3-(7-{2-[4-(cyclopropylmethyl)-3-oxopiperazin-1-yl]ethoxy}-2,3-dihydro-1H-inden-4-yl)urea] | 60 to 80 | 
Cc1ccc(-n2nc(C(C)(C)C)cc2NC(=O)Nc2cc(C)c(OCCN3CCn4c(nnc4-c4cc(Cl)ccc4O)C3)c3c2CCC3)cc1 [Compound 66, 1-[3-tert-butyl-1-(4-methylphenyl)-1H-pyrazol-5-yl]-3-(7-{2-[3-(5-chloro-2-hydroxyphenyl)-5,6-dihydro[1,2,4]triazolo[4,3-a]pyrazin-7(8H)-yl]ethoxy}-6-methyl-2,3-dihydro-1H-inden-4-yl)urea] | < 20 | 
Cc1ccccc1-n1nc(C(C)(C)C)cc1NC(=O)Nc1ccc(OCCN2CCN(CC3CC3)C(=O)C2)c2c1CCC2 [Compound 62, 1-[3-tert-butyl-1-(2-methylphenyl)-1H-pyrazol-5-yl]-3-(7-{2-[4-(cyclopropylmethyl)-3-oxopiperazin-1-yl]ethoxy}-2,3-dihydro-1H-inden-4-yl)urea] | 40 to 60 | 
Cc1ccc(-n2nc(C(C)(C)C)cc2NC(=O)Nc2ccc(OCCN3CCn4c(nnc4-c4ccccc4OCCO)C3)c3c2CCC3)cc1 [Compound 30, 1-[3-tert-butyl-1-(4-methylphenyl)-1H-pyrazol-5-yl]-3-[7-(2-{3-[2-(2-hydroxyethoxy)phenyl]-5,6-dihydro[1,2,4]triazolo[4,3-a]pyrazin-7(8H)-yl}ethoxy)-2,3-dihydro-1H-inden-4-yl]urea] | 80 to 100 | 
CCCOc1ccccc1-c1nnc2n1CCN(CCOc1ccc(NC(=O)Nc3cc(C(C)(C)C)nn3-c3ccc(O)c(Cl)c3)c3c1CCC3)C2 [Compound 27, 1-[3-tert-butyl-1-(3-chloro-4-hydroxyphenyl)-1H-pyrazol-5-yl]-3-(7-{2-[3-(2-propoxyphenyl)-5,6-dihydro[1,2,4]triazolo[4,3-a]pyrazin-7(8H)-yl]ethoxy}-2,3-dihydro-1H-inden-4-yl)urea] | 80 to 100 | 
COc1c(NC(=O)Nc2ccc(OCCCN3CCN(CC4CC4)C(=O)C3)c3c2CCC3)cc(C(C)(C)C)cc1NS(C)(=O)=O [Compound 41, N-(5-tert-butyl-3-{[(7-{3-[4-(cyclopropylmethyl)-3-oxopiperazin-1-yl]propoxy}-2,3-dihydro-1H-inden-4-yl)carbamoyl]amino}-2-methoxyphenyl) methanesulfonamide] | 60 to 80 | 
COc1c(NC(=O)Nc2cc(C)c(OCCN3CCn4c(nnc4-c4cc(Cl)ccc4O)C3)c3c2CCC3)cc(C(C)(C)C)cc1NS(C)(=O)=O [Compound 73, N-(5-tert-butyl-3-{[(7-{2-[3-(5-chloro-2-hydroxyphenyl)-5,6-dihydro[1,2,4]triazolo[4,3-a]pyrazin-7(8H)-yl]ethoxy}-6-methyl-2,3-dihydro-1H-inden-4-yl)carbamoyl]amino}-2-methoxyphenyl)methanesulfonamide] | 40 to 60 | 
CCS(=O)(=O)Nc1cc(C(C)(C)C)cc(NC(=O)Nc2ccc(OCCN3CCn4c(nnc4-c4ccc(O)cc4O)C3)c3c2CCC3)c1OC [Compound 49, N-(5-tert-butyl-3-{[(7-{2-[3-(2,4-dihydroxyphenyl)-5,6-dihydro[1,2,4]triazolo[4,3-a]pyrazin-7(8H)-yl]ethoxy}-2,3-dihydro-1H-inden-4-yl)carbamoyl]amino}-2-methoxyphenyl)ethanesulfonamide] | 80 to 100 | 
CCS(=O)(=O)Nc1cc(C(C)(C)C)cc(NC(=O)Nc2ccc(OCCN3CCn4c(nnc4-c4cc(Cl)ccc4O)C3)c3c2CCC3)c1OC [Compound 51, N-(5-tert-butyl-3-{[(7-{2-[3-(5-chloro-2-hydroxyphenyl)-5,6-dihydro[1,2,4]triazolo[4,3-a]pyrazin-7(8H)-yl]ethoxy}-2,3-dihydro-1H-inden-4-yl)carbamoyl]amino}-2-methoxyphenyl)ethanesulfonamide] | 80 to 100 | 

Next, values leading:

inhibition at 1 µM [%] | inhibition at 0.1 µM (Concentration 100 nM) [%] | Structure (SMILES)
80 to 100 |  | Cc1ccc(-n2nc(C(C)(C)C)cc2NC(=O)Nc2ccc(OCCN3CCn4c(nnc4-c4ccc(O)cc4O)C3)c3c2CCC3)cc1 [Compound 37, 1-[3-tert-butyl-1-(4-methylphenyl)-1H-pyrazol-5-yl]-3-(7-{2-[3-(2,4-dihydroxyphenyl)-5,6-dihydro[1,2,4]triazolo[4,3-a]pyrazin-7(8H)-yl]ethoxy}-2,3-dihydro-1H-inden-4-yl)urea]
80 to 100 |  | Cc1ccc(-n2nc(C(C)(C)C)cc2NC(=O)Nc2ccc(OCCN3CCn4c(nnc4-c4ccc(O)cc4)C3)c3c2CCC3)cc1 [Compound 34, 1-[3-tert-butyl-1-(4-methylphenyl)-1H-pyrazol-5-yl]-3-(7-{2-[3-(4-hydroxyphenyl)-5,6-dihydro[1,2,4]triazolo[4,3-a]pyrazin-7(8H)-yl]ethoxy}-2,3-dihydro-1H-inden-4-yl)urea]
60 to 80 |  | COc1ccc(-n2nc(C(C)(C)C)cc2NC(=O)Nc2ccc(OCCN3CCN(CC4CC4)C(=O)C3)c3c2CCC3)cc1 [Compound 17, 1-[3-tert-butyl-1-(4-methoxyphenyl)-1H-pyrazol-5-yl]-3-(7-{2-[4-(cyclopropylmethyl)-3-oxopiperazin-1-yl]ethoxy}-2,3-dihydro-1H-inden-4-yl)urea]
80 to 100 |  | CSc1ccccc1-c1nnc2n1CCN(C(=O)COc1ccc(NC(=O)Nc3cc(C(C)(C)C)nn3-c3ccc(O)c(Cl)c3)c3c1CCC3)C2 [Compound 9, 1-[3-tert-butyl-1-(3-chloro-4-hydroxyphenyl)-1H-pyrazol-5-yl]-3-[7-(2-{3-[2-(methylsulfanyl)phenyl]-5,6-dihydro[1,2,4]triazolo[4,3-a]pyrazin-7(8H)-yl}-2-oxoethoxy)-2,3-dihydro-1H-inden-4-yl]urea]
80 to 100 |  | Cc1ccc(-n2nc(C(C)(C)C)cc2NC(=O)Nc2ccc(OCCN3CCn4c(nnc4-c4ccccc4O)C3)c3c2CCC3)cc1 [Compound 15, 1-[3-tert-butyl-1-(4-methylphenyl)-1H-pyrazol-5-yl]-3-(7-{2-[3-(2-hydroxyphenyl)-5,6-dihydro[1,2,4]triazolo[4,3-a]pyrazin-7(8H)-yl]ethoxy}-2,3-dihydro-1H-inden-4-yl)urea]
40 to 60 |  | COc1ccc(-n2nc(C(C)(C)C)cc2NC(=O)Nc2ccc(OCC(=O)N3CCn4c(nnc4C(F)(F)F)C3)c3c2CCC3)cc1Cl [Compound 53, 1-[3-tert-butyl-1-(3-chloro-4-methoxyphenyl)-1H-pyrazol-5-yl]-3-(7-{2-oxo-2-[3-(trifluoromethyl)-5,6-dihydro[1,2,4]triazolo[4,3-a]pyrazin-7(8H)-yl]ethoxy}-2,3-dihydro-1H-inden-4-yl)urea]
80 to 100 |  | Cc1ccc(-n2nc(C(C)(C)C)cc2NC(=O)Nc2ccc(OCCN3CCN(CCO)C(=O)C3)c3c2CCC3)cc1 [Compound 6, 1-[3-tert-butyl-1-(4-methylphenyl)-1H-pyrazol-5-yl]-3-(7-{2-[4-(2-hydroxyethyl)-3-oxopiperazin-1-yl]ethoxy}-2,3-dihydro-1H-inden-4-yl)urea]
80 to 100 |  | Cc1ccc(-n2nc(C(C)(C)C)cc2NC(=O)Nc2ccc(OCCN3CCN(CC4CCC4)C(=O)C3)c3c2CCC3)cc1 [Compound 22, 1-[3-tert-butyl-1-(4-methylphenyl)-1H-pyrazol-5-yl]-3-(7-{2-[4-(cyclobutylmethyl)-3-oxopiperazin-1-yl]ethoxy}-2,3-dihydro-1H-inden-4-yl)urea]
20 to 40 |  | CC(C)(C)c1cc(NC(=O)Nc2ccc(OCC(=O)N3CCn4c(nnc4C(F)(F)F)C3)c3c2CCC3)n(-c2ccc(C3CCCCC3)cc2)n1 [Compound 3, 1-[3-tert-butyl-1-(4-cyclohexylphenyl)-1H-pyrazol-5-yl]-3-(7-{2-oxo-2-[3-(trifluoromethyl)-5,6-dihydro[1,2,4]triazolo[4,3-a]pyrazin-7(8H)-yl]ethoxy}-2,3-dihydro-1H-inden-4-yl)urea]
